Measured values reported in patent US20080125377A1, “DELIVERY SYSTEM FOR ANTIANGIOGENIC AND ANTIINFLAMMATORY PHARMACEUTICALS AND METHOD OF USE” (priority 2006, published 2008).
Entries after “also recorded” stand apart in the source; their conditions may differ.

Tests used:
[1] = system: Human retinal endothelial cells (HREC); assay: Network formation assay in Matrigel, human retinal endothelial cells (HREC); format: cell-based; settings: 1% FBS-RF6A medium, 20 ng/ml rhVEGF, 24 hours, approximate, read-out: ED50, inhibition of network formation of human retinal endothelial cells in Matrigel
Procedure: Evaluation of Efficacy of BOL-303213-X In Human Retinal Endothelial Cells (HREC) Using the Network Formation Assay in Matrigel.
Objective: This study was conducted to evaluate the ability of a novel tyrosine kinase inhibitor, BOL-303213-X, to prevent vascular endothelial cell network formation in an in vitro angiogenesis model—network formation assay in Matrigel.
Methods: Human retinal vascular endothelial cells were isolated and cultured from human donor eyes and characterized by Dio-Ac-LDL uptake. Cell network formation was evaluated after these cells were cultured in Matrigel in 1% FBS-RF6A medium with 20 ng/ml rhVEGF and various doses of BOL-303213-X (30, 60, 200, 600 and 1200 nM) for 24 hours. Cell isolates and cultures from three separated donors were used. The total cell network areas were computed by an image analysis software.

[2] = system: human retinal endothelial cells; assay: Vascular endothelial cell proliferation (cell viability assay kit), human retinal endothelial cells; format: cell-based; settings: dose-dependent
Procedure: (§1) Objective: The present study was conducted to evaluate the ability of a novel tyrosine kinase inhibitor, BOL-303213-X, to prevent vascular endothelial cell proliferation in vitro using human retinal, choroidal, and dermal microvascular endothelial cells, as well as bovine retinal endothelial cells. Inhibition of outgrowths in a human choroid explant assay was also used to evaluate BOL-303213-X activity in a more complex multi-cellular angiogenesis ex vivo model. Furthermore, caspase-3/7 and lactate dehydrogenase (LDH) activities were also determined following treatment of human retinal and choroidal endothelial cells with BOL-303213-X as a preliminary measure of cytotoxicity. Methods: Human retinal and choroidal vascular endothelial cells were isolated and cultured from human donor eyes. Human dermal microvascular endothelial cells and bovine retinal endothelial cells were purchased from commercial sources. Vascular endothelial cell proliferation was measured by comparing the number of viable cells using a commercial cell viability assay kit. Inhibition of choroid outgrowths was evaluated in a human explant assay. Caspase-3/7 and LDH activities were utilized to assess cytotoxicity.

[3] = system: human choroidal endothelial cells; assay: Vascular endothelial cell proliferation (cell viability assay kit), human choroidal endothelial cells; format: cell-based; settings: dose-dependent
Procedure: as §1

[4] = system: human dermal microvascular endothelial cells; assay: Vascular endothelial cell proliferation (cell viability assay kit), human dermal microvascular endothelial cells; format: cell-based; settings: dose-dependent
Procedure: as §1

[5] = system: bovine retinal endothelial cells; assay: Vascular endothelial cell proliferation (cell viability assay kit), bovine retinal endothelial cells; format: cell-based; settings: dose-dependent
Procedure: as §1

[6] = system: human choroid explant outgrowths; assay: Human choroid explant outgrowth assay (ex vivo); format: cell-based; settings: human choroidal outgrowth assay
Procedure: as §1

[7] = system: human retinal endothelial cells; assay: Cytotoxicity (caspase-3/7 and LDH activities), confluent human retinal endothelial cells; format: cell-based; settings: range of concentrations used for efficacy testing
Procedure: as §1

[8] = system: human choroidal endothelial cells; assay: Cytotoxicity (caspase-3/7 and LDH activities), confluent human choroidal endothelial cells; format: cell-based; settings: range of concentrations used for efficacy testing
Procedure: as §1

[9] = system: rhVEGF165-induced blood-retinal barrier breakdown; assay: Blood-retinal barrier breakdown induced by rhVEGF165 in pigmented rabbits (vitreous fluorophotometry); format: in vivo
Procedure: (§2) To expand the efficacy observation of BOL-303213-X in non-ocular system, an ocular efficacy study was conducted in rabbits that included ocular observations to evaluate tolerance of intravitreal administration of BOL-303213-X in hydroxypropyl methylcellulose (HPMC). A rabbit model of blood-retinal barrier (BRB) breakdown induced by intravitreal administration of recombinant human vascular endothelial growth factor (rhVEGF) was used. This model mimics pathologic situations such as macular edema, in which VEGF contributes to increased retinal vascular permeability resulting in edema. In this study 30 μg BOL-303213-X in 50 μl of HPMC was given 3 or 5 days before the VEGF challenge with the evaluation of the BRB integrity also at 2 days after the VEGF challenge.
BOL-303213-X/HPMC Suspension: Evaluation of Efficacy in Pigmented Rabbits Using a Model of Blood-Retinal Barrier Breakdown Induced by VEGF.
Purpose: The aim of this study was to evaluate the efficacy of BOL-303213-X (30 μg) in hydroxypropyl methylcellulose (HPMC) suspension in pigmented rabbits using a model of blood-retinal barrier breakdown induced by rhVEGF 165.
(§3) Methods: Eighty four (84) pigmented rabbits were allocated into 8 groups: three groups were given an intravitreal injection (50 μl) of BOL-303213-X (30 μg) in HPMC, three groups were given an intravitreal injection of HPMC vehicle and two groups were given no treatment. The rhVEGF 165 challenge was performed three days after the treatment injection to three groups (BOL-303213-X-treated, vehicle-treated, and untreated). The rhVEGF 165 challenge was also performed at five days after the treatment injection to four groups (BOL-303213-X-treated, vehicle-treated (n=2), and untreated). One group served as control for the tolerability of BOL-303213-X injection. Breakdown of the blood-retinal barrier was evaluated 24 h (one vehicle-treated group) and 48 h (the other six groups) after rhVEGF 165 challenge by fluorescein leakage from retinal vasculature into the vitreous using non-invasive scanning ocular fluorophotometry. Assessment of tolerability was evaluated by slit-lamp examination, laser flare measurements (LFM) of anterior chamber using a laser flare meter, intraocular pressure (IOP) measurements using a pneumotonometer and vitreo-retinal fluorophotometry. These examinations were performed before injection, before the rhVEGF165 challenge and the day of euthanasia. Results: The general behavior of animals was not altered by the treatment. […] No relevant complications were found during the clinical follow-up.

[10] = Ocular tolerability in the rabbit VEGF efficacy study (slit-lamp, laser flare, IOP); format: in vivo
Procedure: as §2, §3

[11] = system: laser-induced choroidal neovascularization; assay: Laser-induced choroidal neovascularization in cynomolgus monkeys (fluorescein angiography grading); format: in vivo, cynomolgus monkeys (Macaca fascicularis)
Text: BOL-303213-X/HPMC Suspension: Evaluation of Efficacy in Monkeys Using a Laser-Induced Choroidal Neovasuclarization Model.
Purpose: This study was done to qualitatively evaluate the potential inhibitory effect of BOL-303213-X on laser-induced choroidal neovascularization in cynomolgus monkeys when administered biweekly by intravitreal injection beginning at the time of laser treatment.
Methods: Eight cynomolgus monkeys (Macaca fascicularis) were used in this study. The animals were assigned to the study using a computerized procedure designed to achieve body weight balance with respect to groups. The animals were anesthetized with ketamine and xylazine and the eyes dilated with a mydriatic. The macula of both eyes of each animal received laser photocoagulation treatment using a 532 nm diode green laser and slit lamp delivery system and a plano fundus contact lens. This is a standard method for inducing choroidal neovascularization. Nine areas were symmetrically placed in the macula of each eye. The laser parameters included a 75 micron spot size, 0.1 second duration at power settings ranging from 400 to 750 mW. […] Fuorescein angiograms were evaluated according to the following grading system for evidence of excessive permeability (i.e. fluorescein leakage). […]

[12] = Ocular tolerability following a single intravitreal administration in pigmented rabbits; format: in vivo
Procedure: BOL-303213-X In HPMC Suspension. Evaluation of Ocular Tolerability Following a Single Intravitreal Administration in Pigmented Rabbits.
Purpose: The aims of this study were to determine the ocular tolerability and pharmacokinetics of BOL-303213-X in Hydroxy Propyl Methyl Cellulose (HPMC) suspension after a single intravitreal injection at 4 doses: 10, 15, 20 and 30 μg.
Methods: One hundred and two rabbits were allocated into four-dose groups (group 1: 10 μg, group 2: 15 μg, group 3: 20 μg and group 4: 30 μg of BOL-303213-X in HPMC suspension) and one control group (HPMC). Each group was divided in four time-points (15 min, Days 1, 3 and 5) except the control group (one time-point: Day 5). Each animal received an intravitreal injection of test article (50 μl) in the right eye. Tolerability was evaluated by slit lamp examination, anterior chamber inflammation (flare) by laser flare measurements (LFM), intraocular pressure measurements and integrity of the blood retinal barrier (BRB) by vitreous fluorophotometry. These examinations were performed before injection and, on Days 1, 3 and 5. Results: The general behavior of animals was not altered by the treatment. […] No relevant complications were found during the clinical follow-up. […] The blood-retinal barrier was not affected by the different injections. […] There was no difference in IOP between the BOL-303213-X injected and control eyes at any time points.

[13] = Tolerability of intravitreal BOL-303213-X in HPMC in cats; format: in vivo; settings: intravitreal 10 μg in HPMC, statement also covers four pharmacokinetic studies, visible aggregates in vitreous in certain studies
[14] = 10-30 μg in HPMC, single intravitreal injection

## CC(C)Cn1c2ccc(Nc3ncccn3)cc2c2c3c(c4c(c21)CCc1nn(C)cc1-4)C(=O)NC3 [BOL-303213-X]
[1]
  EC50: ~0.18 µM
[2]
  Inhibition of proliferation: inhibited proliferation
[3]
  Inhibition of proliferation: inhibited proliferation
[4]
  Inhibition of proliferation: inhibited proliferation
[5]
  Inhibition of proliferation: inhibited proliferation
[6]
  Inhibition of choroid outgrowths: effective in inhibiting choroid outgrowths
[7]
  Caspase-3/7 activity: no significant increase
  LDH activity: no significant increase
[8]
  Caspase-3/7 activity: no significant increase
  LDH activity: no significant increase
[9]; 30 μg in 50 μl HPMC intravitreal, 3 days before VEGF challenge
  Effect on VEGF-induced retinal vascular permeability / blood-retinal barrier breakdown (in words): significantly reduced; also recorded: effective at blocking
[9]; 30 μg in 50 μl HPMC intravitreal, 3 days before rhVEGF165 challenge, read 48 h after challenge, p=0.04
  Inhibition of vitreous fluorescein leakage vs rhVEGF165 plus HPMC vehicle: 52.7%
[9]; 30 μg in HPMC intravitreal, 3 days before rhVEGF165 challenge, read 48 h after challenge
  Vitreous fluorescein leakage (mean±SD, n=12): 8,458.8±7,067.4
[9]; 30 μg in HPMC intravitreal, 5 days before rhVEGF165 challenge
  Vitreous fluorescein leakage (mean±SD, n=12): 15,228.2±10,364.6
[9]; 30 μg in HPMC intravitreal, 5 days before rhVEGF165 challenge, trend, not statistically significant (p>0.05)
  Inhibition of vitreous fluorescein leakage vs vehicle: 57.7%
[10]; 30 μg in 50 μl HPMC intravitreal, except some eyes with blurred vitreous
  Ocular tolerance observations: no observed tolerance concerns
[10]; 30 μg in HPMC, intravitreal
  Body weights of the animals: within a normal range
  General behavior of animals: not altered
[10]; 30 μg in HPMC, single intravitreal injection
  Toxicity by slit-lamp examination, laser flare and IOP measurements: no evidence of toxicity
[10]; HPMC suspension at 30 μg-dose, normal pigmented rabbits
  Overall safety conclusion: appeared to be safe
[11]; 45 μg in HPMC intravitreal after laser and two weeks post-laser, 2, 3 and 4 weeks post-laser
  Percent of grade IV lesions vs HPMC-vehicle contralateral eye: consistently lower
[11]; 45 μg in HPMC suspension, injected after laser challenge
  Inhibition of choroidal neovascularization (in words): effective at inhibiting choroidal neovascularization
[12]; 10, 15, 20, 30 μg in HPMC, single intravitreal injection 50 μl
  Toxicity by clinical examination, laser flare and IOP measurements: no evidence of toxicity
[12]; 10-30 μg in HPMC suspension
  Clinical observation in the vitreous following the intravitreal injection: small aggregate of drug precipitates
[12]; [14]
  Blood-retinal barrier integrity (vitreous fluorophotometry): not affected
  Body weights of the animals: within a normal range
  General behavior of animals: not altered
[12]; 1 day after the injection, not dose-dependent
  Anterior chamber inflammation: transient anterior inflammation
[12]; Day 5, at least 1 animal of each group (control group included)
  Animals with some inflammatory cells in the vitreous cavity at fundus examination: 9 rabbits out of 30
[12]; HPMC suspension at 10, 15, 20 and 30 μg-doses, normal pigmented rabbit
  Overall safety conclusion: appeared to be safe
[12]; any time points
  IOP, injected vs control eyes: no difference
[13]
  Ocular tolerability: no major ocular tolerance concerns
